Experimental data as given in patent US20190240225A1, “COMBINATION OF A BCL-2 INHIBITOR AND A MCL-1 INHIBITOR, USES AND PHARMACEUTICAL COMPOSITIONS THEREOF” (LES LABORATOIRES SERVIER, priority 2016, published 2019).
Read-outs that look alike come from different tables or passages of the source.

Legend:
primary AML blasts = assay: Cell viability (sytox blue, flow cytometry) of primary AML patient samples, LC50; type: cell-based, human; conditions: 54 primary AML samples; 48 h; RPMI/15% FCS; combination at 1:1
Procedure: Primary AML patient samples: Bone marrow or peripheral blood samples from patients with AML were collected after informed consent in accordance with guidelines approved by The Alfred Hospital Human research ethics committees. Mononuclear cells were isolated by Ficoll-Paque (GE Healthcare, VIC, Aus) density-gradient centrifugation, followed by red cell depletion in ammonium chloride (NH4Cl) lysis buffer at 37° C. for 10 minutes. Cells were then re-suspended in phosphate-buffered saline containing 2% Fetal Bovine serum (Sigma, NSW, Aus). Mononuclear cells were then suspended in RPMI-1640 (GIBCO VIC, Aus) medium containing penicillin and streptomycin (GIBCO) and heat inactivated fetal bovine serum 15% (Sigma).
Cell Viability: Freshly purified mononuclear cells from AML patient samples were adjusted to a concentration of 2.5×10^5/ml and 100 μL of cells aliquoted per well into 96 well plates (Sigma). […] For combinations assays, drugs were added at a 1:1 ratio from 1 nM to 10 μM and incubated at 37° C. 5% CO2. Cells were then stained with sytox blue nucleic acid stain (Invitrogen, VIC, Aus) and fluorescence measured by flow cytometric analysis using the LSR-II Fortessa (Becton Dickinson, NSW, Aus). FACSDiva software was used for data collection, and FlowJo software for analysis. Blast cells were gated using forward and side scatter properties. […]

RPMI8226 = assay: MTT cell viability assay, myeloma cell line; type: cell-based, human
Procedure: (§1) Cell lines: Human myeloma cell lines (HMCLs) were derived from primary myeloma cells cultured in RPMI 1640 medium supplemented with 5% fetal calf serum from and 3 ng/mL recombinant IL-6 for IL-6 dependent cell lines. HMCLs are representative of phenotypic and genomic heterogeneity and the variability in patient's response to therapy.
(§2) MTT assay: Cell viability is measured using MTT (3-(4,5-dimethylthiazol-2-yl)-2,5-diphenyltetrazolium bromide) colorimetric survival assay. Cells are incubated with compounds in 96-well plates containing a final volume of 100 μl/well time. (2R)-2-{[(5Sa)-5-{3-chloro-2-methyl-4-[2-(4-methylpiperazin-1-yl)ethoxy]phenyl}-6-(5-fluorofuran-2-yl)thieno[2,3-d]pyrimidin-4-yl]oxy}-3-(2-{[1-(2,2,2-trifluoroethyl)-1H-pyrazol-5-yl]methoxy}phenyl)propanoic acid (Compound 2) is used at 9 different concentrations accordingly to single agent sensitivity. N-(4-hydroxyphenyl)-3-{6-[((3S)-3-(4-morpholinylmethyl)-3,4-dihydro-2(1H)-isoquinolinyl)carbonyl]-1,3-benzodioxol-5-yl}-N-phenyl-5,6,7,8-tetrahydro-1-indolizine carboxamide hydrochloride (Compound 1, HCl) is used at a fixed dose—1 μM. At the end of each treatment, cells are incubated with 1 mg/mL MTT (50 μl MTT solution 2.5 mg/ml for each well) at 37° C. for 3 hours allowing the MTT to be metabolized. Lysis buffer (100 μl Lysis buffer: DMF (2:3)/SDS (1:3)) is added into each well to dissolve formazan cristals and after 18 h of incubation, absorbance in viable cells is measured at 570 nm using a spectrophotometer.
(§3) The sensitivity of 27 human multiple myeloma cell lines to Compound 1, Compound 2 or to Compound 2 in the presence of 1 μM of Compound 1 was analyzed by using MTT cell viability assay. 50% inhibitory concentrations (IC50, in nM) were determined.

AMO1 = assay: MTT cell viability assay, myeloma cell line; type: cell-based, human
Procedure: as §1, §2, §3

XG7 = assay: MTT cell viability assay, myeloma cell line; type: cell-based, human
Procedure: as §1, §2, §3

U266 = assay: MTT cell viability assay, myeloma cell line; type: cell-based, human
Procedure: as §1, §2, §3

JIM3 = assay: MTT cell viability assay, myeloma cell line; type: cell-based, human
Procedure: as §1, §2, §3

KMS12BM = assay: MTT cell viability assay, myeloma cell line; type: cell-based, human
Procedure: as §1, §2, §3

L363 = assay: MTT cell viability assay, myeloma cell line; type: cell-based, human
Procedure: as §1, §2, §3

XG2 = assay: MTT cell viability assay, myeloma cell line; type: cell-based, human
Procedure: as §1, §2, §3

NAN1 = assay: MTT cell viability assay, myeloma cell line; type: cell-based, human
Procedure: as §1, §2, §3

XG6 = assay: MTT cell viability assay, myeloma cell line; type: cell-based, human
Procedure: as §1, §2, §3

JJN3 = assay: MTT cell viability assay, myeloma cell line; type: cell-based, human
Procedure: as §1, §2, §3

KMS11 = assay: MTT cell viability assay, myeloma cell line; type: cell-based, human
Procedure: as §1, §2, §3

XG3 = assay: MTT cell viability assay, myeloma cell line; type: cell-based, human
Procedure: as §1, §2, §3

BCN = assay: MTT cell viability assay, myeloma cell line; type: cell-based, human
Procedure: as §1, §2, §3

KMM1 = assay: MTT cell viability assay, myeloma cell line; type: cell-based, human
Procedure: as §1, §2, §3

NAN9 = assay: MTT cell viability assay, myeloma cell line; type: cell-based, human
Procedure: as §1, §2, §3

NCI-H929 = assay: MTT cell viability assay, myeloma cell line; type: cell-based, human
Procedure: as §1, §2, §3

NAN3 = assay: MTT cell viability assay, myeloma cell line; type: cell-based, human; conditions: single agent
Procedure: as §1, §2, §3

SBN = assay: MTT cell viability assay, myeloma cell line; type: cell-based, human
Procedure: as §1, §2, §3

LP1 = assay: MTT cell viability assay, myeloma cell line; type: cell-based, human
Procedure: as §1, §2, §3

NAN8 = assay: MTT cell viability assay, myeloma cell line; type: cell-based, human
Procedure: as §1, §2, §3

ANBL6 = assay: MTT cell viability assay, myeloma cell line; type: cell-based, human
Procedure: as §1, §2, §3

MM1S = assay: MTT cell viability assay, myeloma cell line; type: cell-based, human
Procedure: as §1, §2, §3

OPM2 = assay: MTT cell viability assay, myeloma cell line; type: cell-based, human
Procedure: as §1, §2, §3

XG1 = assay: MTT cell viability assay, myeloma cell line; type: cell-based, human
Procedure: as §1, §2, §3

NAN6 = assay: MTT cell viability assay, myeloma cell line; type: cell-based, human
Procedure: as §1, §2, §3

XG11 = assay: MTT cell viability assay, myeloma cell line; type: cell-based, human
Procedure: as §1, §2, §3

MV4;11 AML cells = assay: Luciferase MV4;11 AML engraftment model in NSG mice; type: in vivo, mouse; conditions: MV4;11-luciferase, Compound 1, HCl 100 mg/kg oral daily, Compound 2 25 mg/kg IV twice weekly, 4 weeks
Procedure: In vivo experimentation AML engraftment: Animal studies were performed under the institutional guidelines approved by the Alfred Medical Research and Education Precinct Animal Ethics Committee, MV4; 11 cells transduced with the luciferase reporter (pLUC2) were intravenously injected at 1×10^5 cells into irradiated (100 Rad) non-obese diabetic/severe combined immunodeficient (NOD/SCID/IL2rγnull) mice as previously described (Jin et al., Cell Stem Cell 2 Jul. 2009, Volume 5, Issue 1, Pages 31-42). Engraftment was measured at day 7 by quantifying the percentage of hCD45+ cells in the PB by flow cytometry and by IVIS imaging of bioluminescent MV4; 11 cells. At day 10, mice received daily oral gavage of Compound 1, HCl (200 μL 100mg/kg—dosage expressed as the free base) dissolved in PEG400 (Sigma), absolute ethanol (Sigma) and distilled H20 40:10:60 or Compound 2 (200 μL 25 mg/kg) twice weekly dissolved in 50% 2-hydroxypropyl)-β-cyclodextrin (Sigma) and 50% 50mM HCl or the drug combination or vehicle, over 4 weeks. Blood counts were determined using a hematology analyzer (BioRad, Gladesville, NSW). […]
To verify the in vivo activity of this approach, luciferase expressing MV4; 11 AML cells were engrafted into NSG mice and treated with Compound 1 (HCl salt) or Compound 2 alone, or in combination and tumour burden assessed after 14 and 21 days of therapy (FIG. 2B). […]

[1] = + 1 μM Compound 1, HCl, read-out: IC50 of Compound 2 in the presence of 1 μM of Compound 1, HCl

Cc1c(-c2c(-c3ccc(F)o3)sc3ncnc(O[C@H](Cc4ccccc4OCc4ccnn4CC(F)(F)F)C(=O)O)c23)ccc(OCCN2CCN(C)CC2)c1Cl [Compound 2, (2R)-2-{[(5Sa)-5-{3-chloro-2-methyl-4-[2-(4-methylpiperazin-1-yl)ethoxy]phenyl}-6-(5-fluorofuran-2-yl)thieno[2,3-d]pyrimidin-4-yl]oxy}-3-(2-{[1-(2,2,2-trifluoroethyl)-1H-pyrazol-5-yl]methoxy}phenyl)propanoic acid]
proportion of primary AML samples highly sensitive (LC50<10 nM) (primary AML blasts): Approximately 20%
IC50 (RPMI8226; [1]): 3 nM
IC50 (RPMI8226; single agent, read-out: IC50): 27.4 nM
IC50 (AMO1; [1]): 0.2 nM
IC50 (AMO1; single agent, read-out: IC50): 0.5 nM
IC50 (XG7; [1]): 8 nM
IC50 (XG7; single agent, read-out: IC50): 16.3 nM
IC50 (U266; [1]): 14.9 nM
IC50 (U266; single agent, read-out: IC50): 170 nM
IC50 (JIM3; [1]): 25.9 nM
IC50 (JIM3; single agent, read-out: IC50): 56.3 nM
IC50 (KMS12BM; [1]): 0.03 nM
IC50 (KMS12BM; single agent, read-out: IC50): 44.1 nM
IC50 (L363; [1]): 3.4 nM
IC50 (L363; single agent, read-out: IC50): 7.6 nM
IC50 (XG2; [1]): 2.7 nM
IC50 (XG2; single agent, read-out: IC50): 6.4 nM
IC50 (NAN1; [1]): 1.4 nM
IC50 (NAN1; single agent, read-out: IC50): 5.7 nM
IC50 (XG6; [1]): 0.5 nM
IC50 (XG6; single agent, read-out: IC50): 19.2 nM
IC50 (JJN3; [1]): 2.4 nM
IC50 (JJN3; single agent, read-out: IC50): 15.6 nM
IC50 (KMS11; [1]): 3.9 nM
IC50 (KMS11; single agent, read-out: IC50): 44.1 nM
IC50 (XG3; [1]): 1.3 nM
IC50 (XG3; single agent, read-out: IC50): 6.1 nM
IC50 (BCN; [1]): 59.3 nM
IC50 (BCN; single agent, read-out: IC50): 1110 nM
IC50 (KMM1; [1]): 8.6 nM
IC50 (KMM1; single agent, read-out: IC50): 57.8 nM
IC50 (NAN9; [1]): 1.1 nM
IC50 (NAN9; single agent, read-out: IC50): 9.7 nM
IC50 (NCI-H929; [1]): 1 nM
IC50 (NCI-H929; single agent, read-out: IC50): 2.3 nM
IC50 (NAN3): 1.5 nM
IC50 (SBN; [1]): 14.6 nM
IC50 (SBN; single agent, read-out: IC50): 221 nM
IC50 (LP1; [1]): 2.9 nM
IC50 (LP1; single agent, read-out: IC50): 158 nM
IC50 (NAN8; [1]): 32.5 nM
IC50 (NAN8; single agent, read-out: IC50): 75.4 nM
IC50 (ANBL6; [1]): 20.8 nM
IC50 (ANBL6; single agent, read-out: IC50): 79.5 nM
IC50 (MM1S; [1]): 23 nM
IC50 (MM1S; single agent, read-out: IC50): 138 nM
IC50 (OPM2; [1]): 1.2 nM
IC50 (OPM2; single agent, read-out: IC50): 9.4 nM
IC50 (XG1; [1]): 0.2 nM
IC50 (XG1; single agent, read-out: IC50): 5.9 nM
IC50 (NAN6; [1]): 1.8 nM
IC50 (NAN6; single agent, read-out: IC50): 7.1 nM
IC50 (XG11; [1]): 8.3 nM
IC50 (XG11; single agent, read-out: IC50): 375 nM
in vivo anti-leukaemic activity (luciferase tumour burden, survival) (MV4;11 AML cells): reduced luciferase bulk
